Measurements taken from paper PMC9658586, “1,4-Naphthoquinone Motif in the Synthesis of New Thiopyrano[2,3-d]thiazoles as Potential Biologically Active Compounds” (Molecules, 2022).
pIC50: −log10 of the molar value. Read-outs that look alike come from different tables or passages of the source.

What was measured:
MDA-MB-435/Melanoma = assay: NCI single-dose screen, MDA-MB-435; format: cell-based, human; conditions: 10 μM, 48 h
Protocol: (§1) Considering the results of previous studies of fused thiazolidinones and their analogs, a series of thiopyrano[2,3-d]thiazoles with naphthoquinone fragments in the structure were studied for their anticancer activity. Thus, synthesized thiopyranothiazole derivatives 3.5 and 3.6 were selected by the National Cancer Institute (NCI), U.S., for their anticancer activity at 10 μM concentration toward a panel of sixty cancer cell lines representing nine different types (leukemia, melanoma, lung, colon, CNS, ovarian, renal, prostate, and breast cancers) (Figures S13–S14). Selection for screening based on new derivatives’ ability to add diversity to the NCI small molecules collection and anticancer assays were performed according to the NCI guidelines and protocols previously described. The compounds were added at the mentioned concentration, and the cell cultures were incubated for 48 h. The results for each compound were reported as the growth percent (GP%) of treated cells compared with untreated control cells.
Anticancer in vitro assay was performed on the human tumor cell lines panel derived from nine neoplastic diseases by the protocol of the Drug Evaluation Branch, National Cancer Institute, Bethesda, MD, USA [44, 45, 46]. […] GP% was spectrophotometrically evaluated vs. controls not treated with test agents.

[1] = test system: Human colon carcinoma HCT116 cells (HCT116wt); assay: MTT cell viability assay, HCT116wt; format: cell-based; conditions: Homo sapiens, HCT-116, 72 h
Protocol: (§2) The MTT cell viability assay was performed 72 h after cells treatment with various concentrations of studied compounds and doxorubicin, a reference drug. […] It is known that ABCB1 (P-glycoprotein), MRP1/ABCC1 (multidrug resistance protein 1), and BCRP/BCG2 (breast cancer resistance protein) have been reported to be key players in resistance to chemotherapy. […] The p53 has diverse mutations in almost all human tumors, stimulating their hyper-proliferation, invasion/metastasis, and thus, influencing the potency of various chemotherapeutics (i.e., platins and anti-metabolites).
(§3) Human colon carcinoma HCT116 cells, human breast adenocarcinoma cells of MCF-7 line, human T-leukemia Jurkat cells, human chronic myelogenous leukemia K562 cells, and human keratinocytes of HaCaT line were from the Cell Collection of R.E. Kavetsky Institute of Experimental Pathology, Oncology and Radiobiology (Kyiv, Ukraine). Murine macrophages of J774.2 line were a generous gift from Professor Sir John Vane (William Harvey Research Institute, London, UK) via Professor Janusz Marcinkiewicz (Jagiellonian University Medical College, Krakow, Poland). Human colon carcinoma HCT116 p53-/- cells with knockdown of P53 gene, as well as human epidermoid cervix carcinoma KB3-1 cells and its ABCB1-overexpressing subline KBC-1, were kindly provided by Professor W. Berger (Institute of Cancer Research, Medical University of Vienna, Austria). […] Human leukemia monocytic THP-1 cells were kindly provided by Professor M. Herrmann (Department of Internal Medicine, Institute for Clinical Immunology and Rheumatology, University of Erlangen-Nuremberg, Germany). Cells were cultured in DMEM or RPMI-1640 medium supplemented with 10% fetal bovine serum (all were purchased from Biowest, Nuaille, France) at 37 °C in a humidified atmosphere containing 5% CO2.
(§4) MTT assay was used to examine the viability of tumor and pseudo-normal cells after their treatment with studied thiopyrano[2,3-d]thiazole derivatives and doxorubicin (Actavis S.R.L., Bucharest, Romania). Cells were seeded in 96-well plates at a density of 3–5 × 103. After 24 h, cells were treated with compound […], 1,4-NQ (0.1–100 µM), and doxorubicin (0.1–100 µM). After incubation for 72 h, MTT reagent (Sigma-Aldrich, St. Louis, MO, USA) was added to each well, according to the Sigma-Aldrich protocol. An absorbance Reader BioTek ELx800 (BioTek Instruments, Inc., Winooski, VT, USA) was used to measure the reaction product.

[2] = test system: human T-leukemia Jurkat cells; assay: MTT cell viability assay, Jurkat; format: cell-based; conditions: 72 h
Protocol: as §2
Human colon carcinoma HCT116 cells, human breast adenocarcinoma cells of MCF-7 line, human T-leukemia Jurkat cells, human chronic myelogenous leukemia K562 cells, and human keratinocytes of HaCaT line were from the Cell Collection of R.E. Kavetsky Institute of Experimental Pathology, Oncology and Radiobiology (Kyiv, Ukraine). […]
MTT assay was used to examine the viability of tumor and pseudo-normal cells after their treatment with studied thiopyrano[2,3-d]thiazole derivatives and doxorubicin (Actavis S.R.L., Bucharest, Romania). […] An absorbance Reader BioTek ELx800 (BioTek Instruments, Inc., Winooski, VT, USA) was used to measure the reaction product.

[3] = test system: panel of sixty cancer cell lines; assay: NCI single-dose (10 μM) anticancer screen, sulforhodamine B, 60-cell-line panel; format: cell-based, human; conditions: 48 h; for Mean Growth, %: growth percent vs untreated control, 60 cell lines; for Range of Growth, %: range over 60 cell lines
Protocol: as §1
Anticancer in vitro assay was performed on the human tumor cell lines panel derived from nine neoplastic diseases by the protocol of the Drug Evaluation Branch, National Cancer Institute, Bethesda, MD, USA [44, 45, 46]. Tested compounds were added to the culture at a single concentration (10^−5 M), and the cultures were incubated for 48 h. Endpoint determinations were made with a protein binding dye, sulforhodamine B. Results for each tested compound were reported as the GP% of the treated cells compared to untreated control cells. GP% was spectrophotometrically evaluated vs. controls not treated with test agents.

Jurkat cells = assay: DNA laddering (DNA extraction and gel electrophoresis); format: cell-based, human
Protocol: DNA extraction and gel electrophoresis were performed as described by Herrmann and others. Jurkat cells were collected by centrifugation; lysed in a lysis buffer (1% NP-40 in 20 mM EDTA, 50 mM Tris-HCl, pH 7.5; 10 µL per 10 6 cells, minimum 50 µL). After centrifugation for 5 min at 1600× g, the supernatant was collected and the extraction was repeated with the same amount of lysis buffer. Supernatants were brought to 1% SDS and treated for 2 h with RNase A (final concentration 5 µg/mL) at 56 °C. Then, proteinase K was added (final concentration 2.5, µg/mL) and incubated for 2 h at 37 °C. After adding 1/2 volume of 10 M ammonium acetate, the DNA was precipitated with 2.5 vol. Ethanol, dissolved in gel loading buffer, and separated by electrophoresis in 1% agarose gels containing Ethidium bromide (at 70 V).

[4] = test system: isolated normal human peripheral blood lymphocytes; assay: MTT cell viability assay, isolated lymphocytes; format: cell-based; conditions: MTT, 72 h, normal human peripheral blood lymphocytes, read-out: IC50, Isolated lymphocytes
Protocol: We continued the cytotoxicity study of synthesized derivatives 3.1–3.6 toward tumor and pseudo-normal cells in vitro. The MTT cell viability assay was performed 72 h after cells treatment with various concentrations of studied compounds and doxorubicin, a reference drug. […] The THP-1 cells, monocytes isolated from peripheral blood from an acute monocytic leukemia patient, were also sensitive to the 3.6 treatment. […] The 3.6 inhibited the viability of epidermoid carcinoma (KB3-1 and its ABCB1-overexpressing subline KBC-1) and colon carcinoma (HCT116wt and its p53 knockdown subline HCT116 p53-/-) cells. It is known that ABCB1 (P-glycoprotein), MRP1/ABCC1 (multidrug resistance protein 1), and BCRP/BCG2 (breast cancer resistance protein) have been reported to be key players in resistance to chemotherapy. […] Thus, the p53 status of colon carcinoma cells influenced the anti-tumor effects of the studied 3,5,10,11-tetrahydro-2H-benzo[6,7]thiochromeno[2,3-d][1, 3]thiazole-2,5,10-trione. The p53 has diverse mutations in almost all human tumors, stimulating their hyper-proliferation, invasion/metastasis, and thus, influencing the potency of various chemotherapeutics (i.e., platins and anti-metabolites). […] Based on our findings, one can assume a p53-dependent mode of action for 3.6 toward colon cancer cells.
as §4
The study protocol with human lymphocytes isolated from healthy adult peripheral blood was approved by BioEthics Committee of the Institute of Cell Biology of National Academy of Sciences of Ukraine (protocol No 2 from 27 January 2019), and with written consent of donor.

[5] = test system: human breast adenocarcinoma cells of MCF-7 line; assay: MTT cell viability assay, MCF-7; format: cell-based; conditions: Homo sapiens, MCF7, 72 h
Protocol: as §2, §3, §4

| Compound | Most Sensitive Cell Line Growth, % (MDA-MB-435/Melanoma) (MDA-MB-435/Melanoma) | pIC50 [1] | pIC50 [2] | Mean Growth, % [3] | Range of Growth, % [3] | DNA laddering (Jurkat cells; 1 µM) | DNA laddering (Jurkat cells; 2.5 µM and 5 µM) | DNA laddering (Jurkat cells; 10 µM and 25 µM) | pIC50 ([4]; Lymphocyte) | pIC50 [5] | DNA laddering (Jurkat cells; 0.5 µM) | pIC50 ([4]; Homo sapiens, Lymphocyte) | pIC50 ([4]; listed as Dox) |
| --- | --- | --- | --- | --- | --- | --- | --- | --- | --- | --- | --- | --- | --- |
| O=C1C2=C(C(=O)c3ccccc31)C(CCc1ccccc1)c1sc(=O)[nH]c1S2 (stereo not shown) [Compound 3.6, 11-Phenethyl-3,11-dihydro-2H-benzo[6,7]thiochromeno[2,3-d]thiazole-2,5,10-trione] | 52.87% | 5.20 | 6.12 | 90.58% | 45.25 to 130.11% | slight laddering of DNA | necrotic degradation of DNA | extreme DNA fragmentation | 4.23 | 5.05 |  |  |  |
| COc1cccc2c1C(=O)c1c(O)c3c(c(O)c1C2=O)C[C@@](O)(C(=O)CO)C[C@@H]3O[C@H]1C[C@H](N)[C@H](O)[C@H](C)O1 [Doxorubicin, doxorubicin, reference compound] | −82.60% | 7.15 | 6.17 | −20.30% | −86.40 to 72.90% |  |  |  |  | 6.20 | more necrotic changes in treated Jurkat cells than apoptotic ones | 6.00 to 6.10 | 6.00 |
